Experimental data published in ChEMBL document CHEMBL5316314, “Structure-Activity Relationship Studies of Antimalarial Plasmodium Proteasome Inhibitors─Part II” (J Med Chem, 2023).

Experiment: Kinetic solubility of compound at pH 6.8
Type: physicochemical
Conditions: buffer

SMILES | Kinetic_solubility [µg/mL]
CC(=O)N[C@H]1Cc2cccc(c2)Oc2cccc(c2)C[C@@H](C(=O)NCC(F)(F)F)NC(=O)[C@H](CCc2ccccc2)NC1=O | < 1.4
O=C(NCC(F)(F)F)[C@@H]1Cc2cccc(c2)Oc2cccc(c2)C[C@H](N2CCCC2=O)C(=O)N[C@@H](CCc2ccccc2)C(=O)N1 | 3.8
Cn1cc(CNC(=O)[C@@H]2Cc3cccc(c3)Oc3cccc(c3)C[C@H](N3CCCS3(=O)=O)C(=O)N[C@@H](CCN3CCCCC3)C(=O)N2)cn1 | > 140
O=C(NCC(F)(F)F)[C@@H]1Cc2cccc(c2)Oc2cccc(c2)C[C@H](N2CCCC2=O)C(=O)N[C@@H](CCN2CCC(F)(F)CC2)C(=O)N1 | > 140
CC(=O)N[C@H]1Cc2cccc(c2)Oc2cccc(c2)C[C@@H](C(=O)NCC(F)(F)F)NC(=O)[C@H](CCC(F)(F)F)NC1=O | < 1.2
O=C(NCC(F)(F)F)[C@@H]1Cc2cccc(c2)Oc2cccc(c2)C[C@H](N2CCCC2=O)C(=O)N[C@@H](CCN2CCC[C@@H](F)C2)C(=O)N1 | > 130
COC[C@@H]1NC(=O)[C@@H](NC(C)=O)Cc2cccc(c2)Oc2cccc(c2)C[C@@H](C(=O)NCC(F)(F)F)NC1=O | 14
C[C@H](NC(=O)[C@@H]1Cc2cccc(c2)Oc2cccc(c2)C[C@H](N2CCCC2=O)C(=O)N[C@@H](CCN2CCCCC2)C(=O)N1)C1CC1 | > 120
O=C(NCC(F)(F)F)[C@@H]1Cc2cccc(c2)Oc2cccc(c2)C[C@H](N2CCCC2=O)C(=O)N[C@@H](Cc2ccccc2)C(=O)N1 | 22
CN1C(=O)[C@H](CCc2ccccc2)NC(=O)[C@@H](N2CCCC2=O)Cc2cccc(c2)Oc2cccc(c2)C[C@H]1C(=O)NCC(F)(F)F | 4.2
CC(=O)N[C@H]1Cc2cccc(c2)Oc2cccc(c2)C[C@@H](C(=O)NCC(F)(F)F)NC(=O)[C@H](CC(C)C)NC1=O | < 1.4
O=C(NC1CCCC1)[C@@H]1Cc2cccc(c2)Oc2cccc(c2)C[C@H](N2CCCS2(=O)=O)C(=O)N[C@@H](CCN2CCOCC2)C(=O)N1 | > 130
O=C(NCC(F)(F)F)[C@@H]1Cc2cccc(c2)Oc2cccc(c2)C[C@H](N2CCOC2=O)C(=O)N[C@@H](CCN2CCCCC2)C(=O)N1 | 65
Cn1cc(CNC(=O)[C@@H]2Cc3cccc(c3)Oc3cccc(c3)C[C@H](N3CCCC3=O)C(=O)N[C@@H](CCN3CCCCC3)C(=O)N2)cn1 | > 150
O=C(NC1CCCC1)[C@@H]1Cc2cccc(c2)Oc2cccc(c2)C[C@H](N2CCCC2=O)C(=O)N[C@@H](CCN2CCCCC2)C(=O)N1 | > 140
O=C(NCC1CC1)[C@@H]1Cc2cccc(c2)Oc2cccc(c2)C[C@H](N2CCCC2=O)C(=O)N[C@@H](CCN2CCCCC2)C(=O)N1 | > 130
O=C(NCC1CC1)[C@@H]1Cc2cccc(c2)Oc2cccc(c2)C[C@H](N2CCCC2=O)C(=O)N[C@@H](CCN2CCOCC2)C(=O)N1 | > 130
CCC[C@@H]1NC(=O)[C@@H](NC(C)=O)Cc2cccc(c2)Oc2cccc(c2)C[C@@H](C(=O)NCC(F)(F)F)NC1=O | < 1.9
CN1C(=O)[C@H](CCc2ccccc2)N(C)C(=O)[C@@H](N2CCCC2=O)Cc2cccc(c2)Oc2cccc(c2)C[C@H]1C(=O)NCC(F)(F)F | 4
CC1(CNC(=O)[C@@H]2Cc3cccc(c3)Oc3cccc(c3)C[C@H](N3CCCC3=O)C(=O)N[C@@H](CCN3CCCCC3)C(=O)N2)CC1 | > 130
Cn1cc(CNC(=O)[C@@H]2Cc3cccc(c3)Oc3cccc(c3)C[C@H](NS(C)(=O)=O)C(=O)N[C@@H](CCN3CCCCC3)C(=O)N2)cn1 | > 140
C[C@@H](NC(=O)[C@@H]1Cc2cccc(c2)Oc2cccc(c2)C[C@H](N2CCCC2=O)C(=O)N[C@@H](CCN2CCCCC2)C(=O)N1)C1CC1 | > 140
O=C(NCC(F)(F)F)[C@@H]1Cc2cccc(c2)Oc2cccc(c2)C[C@H](N2CCCC2=O)C(=O)N[C@@H](CCN2CCCCC2)C(=O)N1 | > 140
